Source: article PMC5956890 (Journal of medicinal chemistry, 2017)
“Also recorded” adds a separate entry of the source.

Legend:
PPARα = molecular target: T1, PPARα (Homo sapiens, UniProt Q07869); experiment: TR-FRET competitive binding assay PPARα; details: up to 20 µM
T1 sequence (Q07869 200-468 limits assumed): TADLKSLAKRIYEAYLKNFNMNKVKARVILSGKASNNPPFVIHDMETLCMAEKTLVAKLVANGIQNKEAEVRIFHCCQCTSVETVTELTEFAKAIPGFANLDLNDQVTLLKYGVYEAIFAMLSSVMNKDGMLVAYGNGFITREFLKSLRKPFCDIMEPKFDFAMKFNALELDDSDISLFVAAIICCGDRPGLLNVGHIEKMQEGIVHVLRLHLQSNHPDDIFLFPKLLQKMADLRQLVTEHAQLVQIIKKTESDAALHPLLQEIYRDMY

PPARγ [1] = molecular target: T2, PPARγ (Homo sapiens, UniProt P37231); experiment: TR-FRET competitive binding assay PPARγ; details: concentration-response
T2 sequence (P37231 235-505 limits assumed): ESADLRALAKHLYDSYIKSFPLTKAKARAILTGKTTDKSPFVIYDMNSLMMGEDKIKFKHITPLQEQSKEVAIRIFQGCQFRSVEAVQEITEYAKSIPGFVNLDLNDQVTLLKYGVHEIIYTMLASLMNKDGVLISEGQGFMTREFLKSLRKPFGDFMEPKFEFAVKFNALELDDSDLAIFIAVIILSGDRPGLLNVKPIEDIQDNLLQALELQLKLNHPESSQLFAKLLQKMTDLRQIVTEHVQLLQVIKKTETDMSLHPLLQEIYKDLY

PPARδ [2] = molecular target: T3, PPARδ (Homo sapiens, UniProt Q03181); experiment: TR-FRET competitive binding assay PPARδ; details: concentration-response
T3 sequence (Q03181 1-441): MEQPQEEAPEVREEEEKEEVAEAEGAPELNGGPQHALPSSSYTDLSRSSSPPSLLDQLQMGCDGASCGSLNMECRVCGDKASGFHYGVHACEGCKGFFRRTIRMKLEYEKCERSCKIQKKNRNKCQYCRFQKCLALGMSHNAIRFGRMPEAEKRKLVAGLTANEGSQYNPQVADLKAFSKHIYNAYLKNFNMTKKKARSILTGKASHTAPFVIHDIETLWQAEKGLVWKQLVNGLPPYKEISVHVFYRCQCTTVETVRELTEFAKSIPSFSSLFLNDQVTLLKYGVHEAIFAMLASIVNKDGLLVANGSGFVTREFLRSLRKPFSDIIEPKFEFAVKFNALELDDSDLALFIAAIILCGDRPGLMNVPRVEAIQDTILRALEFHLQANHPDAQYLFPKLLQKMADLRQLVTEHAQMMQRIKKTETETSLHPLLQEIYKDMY

PPARγ [3] = molecular target: T4, PPARγ (Homo sapiens, UniProt P37231); experiment: luciferase-reporter PPARγ transactivation assay in CV-1 cells; type: cell-based; details: 30 µM
T4 sequence (P37231 1-505): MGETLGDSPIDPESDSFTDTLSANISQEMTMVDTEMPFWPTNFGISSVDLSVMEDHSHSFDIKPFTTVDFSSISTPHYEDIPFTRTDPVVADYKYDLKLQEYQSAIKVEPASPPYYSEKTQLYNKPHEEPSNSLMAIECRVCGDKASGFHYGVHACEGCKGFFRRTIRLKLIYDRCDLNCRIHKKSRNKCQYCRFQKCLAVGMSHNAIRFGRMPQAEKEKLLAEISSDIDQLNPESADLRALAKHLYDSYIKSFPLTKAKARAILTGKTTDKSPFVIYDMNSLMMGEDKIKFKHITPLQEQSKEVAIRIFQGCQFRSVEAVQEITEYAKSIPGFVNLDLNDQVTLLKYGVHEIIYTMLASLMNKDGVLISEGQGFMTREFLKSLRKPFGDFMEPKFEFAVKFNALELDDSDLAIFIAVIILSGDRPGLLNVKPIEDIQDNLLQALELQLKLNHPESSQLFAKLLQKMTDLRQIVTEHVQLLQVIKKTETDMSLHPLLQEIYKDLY

PPARδ [4] = molecular target: T5, PPARδ (Homo sapiens, UniProt Q03181); experiment: TR-FRET PPARδ coactivator assay; type: biochemical; details: compound alone
T5 sequence (Q03181 211-439 limits assumed): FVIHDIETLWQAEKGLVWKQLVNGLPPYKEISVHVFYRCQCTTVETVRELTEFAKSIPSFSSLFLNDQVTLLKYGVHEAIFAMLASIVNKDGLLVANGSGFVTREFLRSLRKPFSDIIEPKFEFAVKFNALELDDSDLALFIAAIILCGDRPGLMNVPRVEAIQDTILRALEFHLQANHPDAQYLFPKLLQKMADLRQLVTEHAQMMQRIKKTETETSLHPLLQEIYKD

PPARδ [5] = molecular target: T5, PPARδ; experiment: TR-FRET PPARδ corepressor assay; type: biochemical; details: SMRT-ID2 peptide
[6] = test system: ANGPTL4 and PDK4 gene transcription; experiment: Q-RT-PCR of ANGPTL4 and PDK4 mRNA in hBM-MSCs; type: cell-based, human; details: 3rd day after induction of adipogenesis
[7] = test system: STZ-induced diabetic C57BL/6J mice; experiment: STZ-induced diabetes mouse model; type: in vivo; details: oral 20 mg/kg for 5 days, male C57BL/6J
hBM-MSCs = experiment: adiponectin production during adipogenesis in hBM-MSCs; details: 20 µM

- replacement of labeled PPARα ligand binding (PPARα): ≤ 50%
- PPARγ binding activity (PPARγ [1]): significant competitive binding activity
- PPARδ binding activity (PPARδ [2]): maximal PPARδ binding activity
Structure (SMILES): O[C@@H]1[C@H](O)CS[C@H]1n1cnc2c(NCc3cccc(I)c3)nc(Cl)nc21 [Compound 3a, (2R,3R,4S)-2-(2-Chloro-6-((3-iodobenzyl)amino)-9H-purin-9-yl)tetrahydrothiophene-3,4-diol]
- PPARγ transactivation compared to troglitazone (PPARγ [3]): did not achieve maximal PPARγ transactivation activity
- recruitment of labeled coactivator peptide to PPARδ (PPARδ [4]): no effect on the recruitment of the labeled coactivator peptide
- interaction between PPARδ and corepressor peptide (PPARδ [5]): promotion of the interaction between PPARδ and corepressor peptide
- ANGPTL4 mRNA level [6]: did not affect ANGPTL4 and PDK4 mRNA levels
- PDK4 mRNA level [6]: did not affect ANGPTL4 and PDK4 mRNA levels
- serum lactate levels [7]: tended to decrease the serum lactate levels
- serum triglyceride levels [7]: downregulated serum triglyceride levels
- serum glucose levels ([7]; 20 mg/kg): significantly decreased serum glucose levels; also recorded: dose-dependent
- rank as promoter of adipogenesis among tested A3 AR agonists and antagonists (hBM-MSCs): most potent promoter of adipogenesis
